Columns and labels:
[1] = competition ELISA for heparin-binding capacity; settings: peptides at 2 μM with 250 units of heparin; FIG. 2
Method: This assay consists on a competition ELISA system, similar to the previously described one. The biotinylated LALF32-51 peptide was adsorbed to polystyrene plates (Costar, USA) in 1×PBS and incubated overnight at 4° C. Analogous peptides L-2, L-8, L-12 and L-20 were mixed at 2 μM with 250 units of heparin (Sodic Heparin, 5,000 U/ml, Liorad) in 1×PBS plus 0.1% of bovine serum albumin (BSA). Afterwards, mixes were added to an ELISA plate containing 0.02 μM of the biotinylated LALF32-51 peptide adsorbed to the solid surface. After a 1 h-incubation at room temperature, plates were washed five times with washing solution and the biotinylated LALF32-51 peptide fixed to the solid surface was detected by incubating for 45 min at 37° C. with streptavidin-peroxidase conjugate at a 1:2,000. Afterwards, plates were washed five times with washing solution and the substrate solution was added. After an additional incubation for 15 min, the reactions were stopped with 2 M sulphuric acid solution. The lack of heparin binding to the analogous peptides correlates with the […] optical density, because they are unable to displace the heparin bound to the biotinylated LALF32-51 peptide adsorb to the solid surface. The unlabeled LALF32-51 peptide at a 100× molar excess was used as control of the assay.

[2] = system: mice lung cancer 3LLD122 cells; test: metastasis model of Lewis' carcinoma; assay type: in vivo, C57BI/6 female mice; settings: 4 mg/kg s.c. after 7 days; sacrifice 21 days after removal of primary tumor; FIG. 8
Method: Eight-to-ten weeks-old C57BI/6 female mice were used for this assay (n=8 animals per experimental group). These animals were inoculated in the posterior right footpad with 250,000 mice lung cancer 3LLD122 cells. After 7 days, a 4 mg/kg of body weight dose of the L-2 analogous peptide was subcutaneously injected. When tumors reached 8 mm in diameter, the primary tumor was surgically removed from the carrier leg. Mice were sacrificed 21 days after this surgical procedure. Lungs were weighed to indicate the amount of metastasis on them.

[3] = system: TC-1 cells; test: double challenge schedule with TC-1 tumor cells; assay type: in vivo; settings: second challenge, day 49 after the first challenge
Method: Animals without established tumors in the schedule of the previous example (n=6) were further challenged for a second time with 50,000 TC-1 cells in a 200 μl volume in PBS by subcutaneous route in the left hind limb (day 49 after the first challenge). The same amount of tumor cells were inoculated to “naïve” mice from the same litter as control group of the experiment, to guarantee the homogeneity in age, and were kept under the same conditions without receiving the peptide (n=10 animals). Parameters evaluated to measure the anti-tumoral effect of the L-2 peptide included the time of tumor grafting and animal survival.

[4] = system: TC-1 cells; test: growth of tumor cells, crystal violet, TC-1; assay type: cell-based, C57BI/6; settings: 9 μM to 300 μM, 72 h; FIG. 9
Method: (§1) For this assay, TC-1, H-125 (non-small human ling cancer cells) and L929) murine fibroblast) cells were seeded in 96-well culture plates (Costar) at a 2×10^4 cells/ml in Dulbecco's modified Eagle's medium (DMEM)(Gibco) supplemented with Calf Fetal Serum (Gibco). After 24 h, the peptides were added to the culture in a range of 9 μM to 300 μM. […] Plates were extensively washed with tap water and plates were read at 562 nm. A pro-apoptotic peptide with a marked anti-proliferative effect in vitro was employed as positive control (Perea, S., et al (2004) Antitumor Effect of a Novel Proapoptotic Peptide that Impairs the Phosphorylation by the Protein Kinase 2 Cancer Research 64: 7127-7129).

[5] = system: L929 murine fibroblast cells; test: growth of cells, crystal violet, L929; assay type: cell-based; settings: 9 μM to 300 μM, 72 h; FIG. 9
Method: as §1

[6] = system: TC-1 tumor cells; test: prophylactic schedule of treatment in the TC-1 tumor model; assay type: in vivo; settings: 4 mg/kg, two injections before inoculation of TC-1 cells
Method: Eight-to-ten weeks-old C57BI/6 female mice were used for this assay (n=10 animals per experimental group). For tumor graft, TC-1 tumor cells, being resuspended in phosphate-buffered saline (PBS). Mice were first injected with the L-2 peptide (4 mg of peptide/kg of body weight). After 7 days, they received a second injection of the same dose; after 14 days of the first peptide injection, animals were inoculated with 50,000 cells in a 200 μl volume by subcutaneous route in the right hind limb. Parameters evaluated for measuring the anti-tumoral effect of the peptide included the time for tumor grafting (FIG. 6A) and the survival of animals (FIG. 6B).

[7] = system: TC-1 tumor cells; test: anti-tumoral effect in the TC-1 tumor model; assay type: in vivo; settings: 4 mg per kg s.c.
Method: Eight-to-ten weeks-old C57BI/6 female mice were used for this assay (n=10 animals per experimental group). For tumor graft, TC-1 tumor cells derived from C57BI/6 malignant epithelial lung cells were used, being resuspended in phosphate-buffered saline (PBS). An amount of 50,000 cells in a 200 μl volume was inoculated to mice by subcutaneous route in the right hind limb. The first peptide administration was carried out by subcutaneous route in the right flank once tumor reached a 100 mm^3 volume, and the second was carried out after 10 days. In this assay, a 4 mg per kg of weight dose was evaluated (80 μg/mice). Animal survival and tumor mass were the parameters evaluated to measure the anti-tumoral effect peptides of interest, as shown in FIGS. 4A and 4B. […] The Log Rank method was used as statistical analysis for detecting significant differences between groups.

[8] = at 100 mm^3 tumor volume and after 10 days, FIG. 4

## HARIKPTFRRLKWKYKGKFW [Peptide L-2, alanine-substituted analogue of LALF 32-51]
[1]
  heparin binding: unable to bind heparin
[2]
  metastasis (lung weight): able to reduce the metastatic tumor events
[3]; FIG. 7A
  time of tumor grafting: retarding the establishment of the tumor
[3]; FIG. 7B
  animal survival: increasing animal survival
[4]
  anti-proliferative effect: dose-dependent anti-proliferative effect
[5]
  anti-proliferative effect: no effect was detected
[6]; FIG. 6A
  time for tumor grafting: effective to prevent the development of the tumor
[6]; FIG. 6B
  survival of animals: increased the survival of the animals
[7]; [8]
  survival of mice: prolonging survival of mice
  tumor progression (tumor mass): effective for inhibiting tumor progression
[7]; Log Rank, *p<0.05
  survival of animals compared to the LALF32-51 peptide: significantly increase the survival of animals

Source: patent publication US8283324B2, “Immunomodulatory and anti-tumour peptides” (Centro de Ingenieria Genetica y Biotecnologia, priority 2006, dated 2012)
